Common to all, as to assay type: cell-based
The test system of test [1] is Human Colon Cancer HCT-116. The test is described as follows: Cell proliferation experiment (Alarm blue, 72 h, EC50). To be noted: Homo sapiens, HCT-116; HCT116 cells. In short, it runs like this: (§1)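 Log-phase cells were seeded in 96-well plates, then exposed to test compound in a 5-fold dilution series, in duplicate, for 72 h. Fluorescence read by Alarm blue. EC50 fitted with a four-parameter (Min, Max, Slope) equation.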

Test [2] deals with Human Monocytic Leukemia MV4-11. Described as above. To be noted: Homo sapiens, MV4-11, MV4;11 cells. The gist of the method:
as §1

The target of test [3] is T1, BRD4 (Homo sapiens, UniProt O60885).
T1 construct: endogenous in cells
The test is described as follows: Western blot, protein degradation (DC50). As for the experimental part: (§2) Cells were treated with the compound for a period of time, after that the cells were collected by centrifugation. After washing with PBS, the cells were lysed by adding RIPA buffer; the cell lysate were added to the loading buffer and then appropriate volume were taken and slowly added to the corresponding wells of the gel plate, and run the SDS-PAGE gel (4%-12%). After running the gel, transferred to the PVDF membrane and sealed with 5% skimmed milk powder at room temperature for 1 hour. The membrane was placed in the primary antibody diluted with 5% skimmed milk powder and shaked slowly overnight at 4° C. After incubation with primary antibody, the membrane was washed 3 times using a TBST shaker; added secondary antibody diluted with 5% skimmed milk powder corresponding to the primary antibody, and shaked slowly at room temperature for 1 hour. After incubation with secondary antibody, the membrane was washed 3 times using the TBST shaker again. The PVDF membrane was flatted in the cassette, the strip was evenly infiltrated with ECL developer solution, and placed in ChemDoc XRS+ gel imager for taking pictures. The intensity of protein bands was analyzed quantitatively using ImageJ software.
(In western blotting, separated proteins are transferred to a membrane and probed.)

For test [4], the target named is T2, PLK1 (Homo sapiens, UniProt P53350).
T2 construct: endogenous in cells
The test is described as follows: Western blot, protein degradation (DC50). To be noted: 6 h; read-out: PLK1 DC50 (6 h). As for the experimental part:
as §2

Like-named read-outs stand apart in the source and are kept apart here.

T2 sequence (P53350 whole entry): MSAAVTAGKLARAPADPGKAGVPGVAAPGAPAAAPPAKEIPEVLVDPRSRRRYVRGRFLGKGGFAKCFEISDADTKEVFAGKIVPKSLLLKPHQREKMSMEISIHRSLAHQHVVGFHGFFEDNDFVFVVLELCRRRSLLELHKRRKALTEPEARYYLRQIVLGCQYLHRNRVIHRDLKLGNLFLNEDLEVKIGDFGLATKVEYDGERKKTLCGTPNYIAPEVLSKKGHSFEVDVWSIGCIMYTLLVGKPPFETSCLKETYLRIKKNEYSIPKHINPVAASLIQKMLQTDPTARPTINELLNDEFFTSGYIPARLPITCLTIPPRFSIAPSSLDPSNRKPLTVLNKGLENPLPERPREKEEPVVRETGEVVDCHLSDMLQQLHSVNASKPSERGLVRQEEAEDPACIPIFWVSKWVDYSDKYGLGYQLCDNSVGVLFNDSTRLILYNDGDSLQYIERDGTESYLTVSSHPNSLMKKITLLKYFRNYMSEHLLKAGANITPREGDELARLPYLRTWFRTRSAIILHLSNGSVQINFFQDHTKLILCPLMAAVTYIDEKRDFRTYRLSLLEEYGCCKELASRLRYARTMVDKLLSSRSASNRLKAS

With `O=C1CCC(N2Cc3c(NC(=O)COCCOCCOCCNC(=O)c4ccc(Nc5ncc6c(n5)-c5ccc(Cl)cc5C(c5c(F)cccc5F)=NC6)cc4)cccc3C2=O)C(=O)N1` (stereo not drawn) [UB-180520], the EC50 (usually the concentration giving half of the maximal effect) in test [1] was over 1000 nM; in test [2], 10 to 100 nM. In the same order, the values of `O=C1CCC(N2Cc3c(NC(=O)COCCOCCOCCOCCNC(=O)c4ccc(Nc5ncc6c(n5)-c5ccc(Cl)cc5C(c5c(F)cccc5F)=NC6)cc4)cccc3C2=O)C(=O)N1` (stereo not drawn) [UB-180534] are over 1000 nM and 10 to 100 nM. With `O=C1CCC(N2Cc3c(NC(=O)CCNC(=O)[C@]4(Cc5cccc(Nc6nccs6)n5)CC[C@@H](Oc5cccc(Cl)c5F)CC4)cccc3C2=O)C(=O)N1` (stereo partly drawn) [UB-180616], the EC50 in test [1] and in test [2] was over 1000 nM in each case.

With `Cc1sc2c(c1C)C(c1ccc(Cl)cc1)=N[C@@H](CC(=O)NCCCNCCCCCCC(=O)Nc1cccc3c1CN(C1CCC(=O)NC1=O)C3=O)c1nnc(C)n1-2` (stereo partly drawn) [UB-180629], the half-maximal effective concentration (EC50) in test [1] was over 1000 nM; in test [2] it was 100 to 1000 nM. On the same counts, the results for `O=C1CCC(N2Cc3c(NC(=O)CCOCCCOCCOCCNC(=O)c4ccc(Nc5ncc6c(n5)-c5ccc(Cl)cc5C(c5c(F)cccc5F)=NC6)cc4)cccc3C2=O)C(=O)N1` (stereo not drawn) [UB-180610] are over 1000 nM and 10 to 100 nM. As for `O=C1CCC(N2Cc3c(NC(=O)COCCOCCNC(=O)c4ccc(Nc5ncc6c(n5)-c5ccc(Cl)cc5C(c5c(F)cccc5F)=NC6)cc4)cccc3C2=O)C(=O)N1` (stereo not drawn) [UB-180559], the values for the EC50 in test [1] and in test [2] were over 1000 nM and 100 to 1000 nM, respectively.

Turning to `O=C1CCC(N2Cc3c(NC(=O)CCOCCCOCCOCCNC(=O)[C@]4(Cc5cccc(Nc6nccs6)n5)CC[C@@H](Oc5cccc(Cl)c5F)CC4)cccc3C2=O)C(=O)N1` (stereo partly drawn) [UB-180611], the 50% effective concentration (EC50) in test [1] was over 1000 nM; in test [2], 10 to 100 nM. On the same counts, the results for `O=C1CCC(N2Cc3c(NC(=O)CCOCCOCCNC(=O)[C@]4(Cc5cccc(Nc6nccs6)n5)CC[C@@H](Oc5cccc(Cl)c5F)CC4)cccc3C2=O)C(=O)N1` (stereo partly drawn) [UB-180590] are over 1000 nM and over 1000 nM. Turning to `CC[C@@H]1c2c(C#N)ncn2-c2cnc(Nc3ccc(C(=O)NCCOCCOCCOCC(=O)Nc4cccc5c4C(=O)N(C4CCC(=O)NC4=O)C5=O)cc3OC)nc2N1Cc1ccc(Br)cc1` (stereo partly drawn) [UB-180594], the half-maximal degradation concentration (DC50) (in general, the concentration giving 50% degradation) was over 1000 nM in test [3] (6 h, read-out: BRD4 DC50 (6 h)) and over 1000 nM in test [4]. As for `Cc1sc2c(c1C)C(c1ccc(Cl)cc1)=N[C@@H](CC(=O)NCCCNCCCCC(=O)Nc1cccc3c1CN(C1CCC(=O)NC1=O)C3=O)c1nnc(C)n1-2` (stereo partly drawn) [UB-180641], the results for the EC50 in test [1] and in test [2] were over 1000 nM and 100 to 1000 nM, respectively. On the same counts, the results for `O=C1CCC(N2Cc3c(NC(=O)COCCCCNC(=O)[C@]4(Cc5cccc(Nc6nccs6)n5)CC[C@@H](Oc5cccc(Cl)c5F)CC4)cccc3C2=O)C(=O)N1` (stereo partly drawn) [UB-180586] are over 1000 nM and over 1000 nM. As for `Cc1sc2c(c1C)C(c1ccc(Cl)cc1)=N[C@@H](CC(=O)NCCOCCOCCOCCNCCC(=O)Nc1cccc3c1CN(C1CCC(=O)NC1=O)C3=O)c1nnc(C)n1-2` (stereo partly drawn) [UB-180635], in test [1], the EC50 is over 1000 nM. Take `O=C1CCC(N2Cc3c(NC(=O)CCCNC(=O)c4ccc(Nc5ncc6c(n5)-c5ccc(Cl)cc5C(c5c(F)cccc5F)=NC6)cc4)cccc3C2=O)C(=O)N1` (stereo not drawn) [UB-180501]: the EC50 was 100 to 1000 nM in test [1] and over 1000 nM in test [2]. On the same counts, the results for `O=C1CCC(N2Cc3c(NC(=O)COCCCCNC(=O)c4ccc(Nc5ncc6c(n5)-c5ccc(Cl)cc5C(c5c(F)cccc5F)=NC6)cc4)cccc3C2=O)C(=O)N1` (stereo not drawn) [UB-180503] are 100 to 1000 nM and 100 to 1000 nM.

As to `O=C1CCC(N2Cc3c(NC(=O)CCNC(=O)c4ccc(Nc5ncc6c(n5)-c5ccc(Cl)cc5C(c5c(F)cccc5F)=NC6)cc4)cccc3C2=O)C(=O)N1` (stereo not drawn) [UB-180617], the half-maximal effective concentration (EC50) in test [1] and in test [2] was over 1000 nM each time. Consider `O=C1CCC(N2Cc3c(NC(=O)COCCOCCOCCOCCNC(=O)[C@]4(Cc5cccc(Nc6nccs6)n5)CC[C@@H](Oc5cccc(Cl)c5F)CC4)cccc3C2=O)C(=O)N1` (stereo partly drawn) [UB-180582], for which the EC50 in test [1] is over 1000 nM; in test [2] it was 10 to 100 nM. As to `O=C1CCC(N2Cc3c(NC(=O)CCOCCOCCOCCOCCNC(=O)c4ccc(Nc5ncc6c(n5)-c5ccc(Cl)cc5C(c5c(F)cccc5F)=NC6)cc4)cccc3C2=O)C(=O)N1` (stereo not drawn) [UB-180530], the figures for the EC50 in test [1] and in test [2] were over 1000 nM and 10 to 100 nM, respectively.

In the case of `Cc1sc2c(c1C)C(c1ccc(Cl)cc1)=N[C@@H](CC(=O)NCCOCCOCCOCCNCCCC(=O)Nc1cccc3c1CN(C1CCC(=O)NC1=O)C3=O)c1nnc(C)n1-2` (stereo partly drawn) [UB-180648], in test [1], the half-maximal effective concentration (EC50) is over 1000 nM. For the compound `O=C1CCC(N2Cc3c(NC(=O)COCCOCCOCCNC(=O)[C@]4(Cc5cccc(Nc6nccs6)n5)CC[C@@H](Oc5cccc(Cl)c5F)CC4)cccc3C2=O)C(=O)N1` (stereo partly drawn) [UB-180573], the EC50 in test [1] and in test [2] was over 1000 nM in each case. Take `O=C1CCC(N2Cc3c(NC(=O)COCCNC(=O)c4ccc(Nc5ncc6c(n5)-c5ccc(Cl)cc5C(c5c(F)cccc5F)=NC6)cc4)cccc3C2=O)C(=O)N1` (stereo not drawn) [UB-180509]: the EC50 in test [1] and in test [2] was over 1000 nM each time. Consider `Cc1sc2c(c1C)C(c1ccc(Cl)cc1)=N[C@@H](CC(=O)NCCCNCCCC(=O)Nc1cccc3c1CN(C1CCC(=O)NC1=O)C3=O)c1nnc(C)n1-2` (stereo partly drawn) [UB-180640], for which the EC50 was over 1000 nM in test [1] and 100 to 1000 nM in test [2].

In the case of `O=C1CCC(N2Cc3c(NC(=O)COCCCNC(=O)[C@]4(Cc5cccc(Nc6nccs6)n5)CC[C@@H](Oc5cccc(Cl)c5F)CC4)cccc3C2=O)C(=O)N1` (stereo partly drawn) [UB-180588], the EC50 in test [1] and in test [2] was over 1000 nM throughout. Consider `CC[C@@H]1C(=O)N(C)c2cnc(Nc3ccc(C(=O)NCCCOCC(N)COCCC(=O)Nc4cccc5c4CN(C4CCC(=O)NC4=O)C5=O)cc3OC)nc2N1C1CCCC1` (stereo partly drawn) [UB-180624], for which the EC50 in test [2] was in the range of 10 to 100 nM. Moreover, the 50% degradation concentration (DC50) in test [3] (24 h, read-out: BRD4 DC50 (24 h)) is under 10 nM. Regarding `O=C1CCC(N2Cc3c(NC(=O)CCOCCOCCNC(=O)c4ccc(Nc5ncc6c(n5)-c5ccc(Cl)cc5C(c5c(F)cccc5F)=NC6)cc4)cccc3C2=O)C(=O)N1` (stereo not drawn) [UB-180504], the half-maximal effective concentration (EC50) was in the range of 100 to 1000 nM in test [1] and 10 to 100 nM in test [2].

Take `O=C1CCC(N2Cc3c(NC(=O)CCOCCOCCOCCOCCNC(=O)[C@]4(Cc5cccc(Nc6nccs6)n5)CC[C@@H](Oc5cccc(Cl)c5F)CC4)cccc3C2=O)C(=O)N1` (stereo partly drawn) [UB-180575]: the concentration giving a half-maximal response (EC50) in test [1] was over 1000 nM; in test [2] it was 10 to 100 nM. As for `O=C1CCC(N2Cc3c(NC(=O)COCCCNC(=O)c4ccc(Nc5ncc6c(n5)-c5ccc(Cl)cc5C(c5c(F)cccc5F)=NC6)cc4)cccc3C2=O)C(=O)N1` (stereo not drawn) [UB-180502], the EC50 in test [1] was in the range of 100 to 1000 nM; in test [2], 10 to 100 nM. Regarding `O=C1CCC(N2Cc3c(NC(=O)COCCOCCNC(=O)[C@]4(Cc5cccc(Nc6nccs6)n5)CC[C@@H](Oc5cccc(Cl)c5F)CC4)cccc3C2=O)C(=O)N1` (stereo partly drawn) [UB-180572], the EC50 in test [1] and in test [2] was over 1000 nM each time. As to `O=C1CCC(N2Cc3c(NC(=O)COCCNC(=O)[C@]4(Cc5cccc(Nc6nccs6)n5)CC[C@@H](Oc5cccc(Cl)c5F)CC4)cccc3C2=O)C(=O)N1` (stereo partly drawn) [UB-180577], the EC50 in test [1] and in test [2] was over 1000 nM throughout. Consider `O=C1CCC(N2Cc3c(NC(=O)CCCNC(=O)[C@]4(Cc5cccc(Nc6nccs6)n5)CC[C@@H](Oc5cccc(Cl)c5F)CC4)cccc3C2=O)C(=O)N1` (stereo partly drawn) [UB-180574], for which the EC50 in test [1] and in test [2] was over 1000 nM each time. Regarding `CC[C@@H]1C(=O)N(C)c2cnc(Nc3ccc(C(=O)NC4CCN(CCOCCN(CC)CC(=O)Nc5cccc6c5CN(C5CCC(=O)NC5=O)C6=O)CC4)cc3OC)nc2N1C1CCCC1` (stereo partly drawn) [UB-180828], the results for the EC50 in test [1] and in test [2] were 100 to 1000 nM and under 10 nM, respectively. On the same counts, the results for `Cc1sc2c(c1C)C(c1ccc(Cl)cc1)=N[C@@H](CC(=O)NCCCNCCCCCC(=O)Nc1cccc3c1CN(C1CCC(=O)NC1=O)C3=O)c1nnc(C)n1-2` (stereo partly drawn) [UB-180642] are over 1000 nM and 100 to 1000 nM. On the same counts, the results for `Cc1sc2c(c1C)C(c1ccc(Cl)cc1)=N[C@@H](CC(=O)NCCCNCCCCCCCC(=O)Nc1cccc3c1CN(C1CCC(=O)NC1=O)C3=O)c1nnc(C)n1-2` (stereo partly drawn) [UB-180630] are over 1000 nM and 100 to 1000 nM. `CC[C@@H]1C(=O)N(C)c2cnc(Nc3ccc(C(=O)NCCOCCNCCC(=O)Nc4cccc5c4CN(C4CCC(=O)NC4=O)C5=O)cc3OC)nc2N1C1CCCC1` (stereo partly drawn) [UB-180696] yielded an EC50 in test [2] of 10 to 100 nM. Same read-out and setting: as for `Cc1ncsc1-c1ccc(CNC(=O)[C@@H]2C[C@@H](O)CN2C(=O)[C@@H](NC(=O)COCCNCCn2cc(COCCOCCOCCNC(=O)[C@]3(Cc4cccc(Nc5nccs5)n4)CC[C@@H](Oc4cccc(Cl)c4F)CC3)nn2)C(C)(C)C)cc1` [UB-180791], the figure is over 1000 nM; as for `CC[C@@H]1C(=O)N(C)c2cnc(Nc3ccc(C(=O)NCCNCCOCCOCCOCC(=O)Nc4cccc5c4CN(C4CCC(=O)NC4=O)C5=O)cc3OC)nc2N1C1CCCC1` (stereo partly drawn) [UB-180815], 10 to 100 nM. On the same count and under the same terms, as for `Cc1ncsc1-c1ccc(CNC(=O)[C@@H]2C[C@@H](O)CN2C(=O)[C@@H](NC(=O)CCOCCOCCOCCNC(=O)c2ccc(Nc3ncc4c(n3)-c3ccc(Cl)cc3C(c3c(F)cccc3F)=NC4)cc2)C(C)(C)C)cc1` [UB-180615], the figure is 10 to 100 nM.

These data come from patent US20210369853A1, “TARGETED PROTEASE DEGRADATION PLATFORM” (EUBULUS BIOTHERAPEUTICS INC., priority 2018, published 2021).
